Drawing on patent US20250382305A1 (PTC THERAPEUTICS, INC., priority 2022, published 2025), this text covers IC50 for ten compounds.

Bounds are passed on as bounds.

For one test, the system named is ATXN3 pre-mRNA. The test is described as follows: RT-qPCR Assay to Quantify Exon 4 Skipping in ATXN3 pre-mRNA in Cells. Particulars: percent exon 4 skipping in ATXN3 pre-mRNA, RT-qPCR of cell lysates; average IC50. Type of test: cell-based. In a few lines:
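IC50 derives from a dose-response fit of percent exon 4 skipping, quantified by RT-qPCR on crude lysates. Compounds tested as 7-point 3.16-fold dilutions in duplicate; cells (10,000/well) were exposed for 24 h at 37 °C before lysis.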
On the technique in general: Real-time PCR tracks product formation cycle by cycle.

Test [1] deals with Total ATXN3 (tATXN3) protein. As to the kind of experiment: Endogenous Total ATXN3 (tATXN3) Protein Assay (MSD immunoassay of cell lysates). Type of test: cell-based. The settings on record: average IC50, total ATXN3 protein in cell lysate after 48 h with compound (Table 1). In a few lines:
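By electrochemiluminescent MSD sandwich immunoassay (mouse monoclonal capture, rabbit monoclonal and SULFO-TAG anti-rabbit detection), endogenous ATXN3 was quantified in lysates of cells treated 48 h at 37° C at 10,000 cells/well. Treatment used a 7-point 3.16-fold duplicate dilution series, with average IC50 grouped into star categories.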

As for `C[C@@H]1C=C[C@H](C)[C@H](N)[C@H]1c1sc2c(NCc3ccco3)cc(Cl)nc2c1Cl` [Compound 450, 2-((1S,2R,5S,6S)-6-amino-2,5-dimethylcyclohex-3-en-1-yl)-3,5-dichloro-N-(furan-2-ylmethyl)thieno[3,2-b]pyridin-7-amine], the IC50 (with ATXN3 pre-mRNA; in test [1]) was 300 to 1000 nM throughout.
As to `CN(Cc1cccs1)c1cc(Cl)nc2c(C#CCCCO)c([C@@H]3CC=CC[C@H]3N)sc12` [Compound 451, 5-(2-((1R,6R)-6-aminocyclohex-3-en-1-yl)-5-chloro-7-(methyl(thiophen-2-ylmethyl)amino)thieno[3,2-b]pyridin-3-yl)pent-4-yn-1-ol], the half-maximal inhibitory concentration (IC50) (in the test on ATXN3 pre-mRNA; in test [1]) was 30 to 300 nM in each case.
`CN(Cc1ccco1)c1cc(Cl)nc2c(C#CCCCO)c([C@@H]3CC=CC[C@H]3N)sc12` [Compound 452, 5-(2-((1R,6R)-6-aminocyclohex-3-en-1-yl)-5-chloro-7-((furan-2-ylmethyl)(methyl)amino)thieno[3,2-b]pyridin-3-yl)pent-4-yn-1-ol]: the IC50 (with ATXN3 pre-mRNA; in test [1]) was 30 to 300 nM each time.
For the compound `CN(Cc1ccccc1)c1cc(Cl)nc2c(C#CCCCO)c([C@H]3CC=CC[C@@H]3N)sc12` [Compound 453, 5-(2-((1S,6S)-6-aminocyclohex-3-en-1-yl)-7-(benzyl(methyl)amino)-5-chlorothieno[3,2-b]pyridin-3-yl)pent-4-yn-1-ol], the IC50 (with ATXN3 pre-mRNA; in test [1]) was 300 to 1000 nM throughout.
Consider “(1R,2R,3S)-2-amino-3-(3-bromo-5-chloro-7-((thiophen-2-ylmethyl)amino)thieno[3,2-b]pyridin-2-yl)cyclohexan-1-ol and (1S,2S,3R)-2-amino-3-(3-bromo-5-chloro-7-((thiophen-2-ylmethyl)amino)thieno[3,2-b]pyridin-2-yl)cyclohexan-1-ol [Compound 228]”, for which the IC50 (in the test on ATXN3 pre-mRNA; in test [1]) was at most 30 nM each time.
Regarding “(1R,2S,3R)-2-amino-3-(5-chloro-3-methyl-7-((thiophen-2-ylmethyl)amino)thieno[3,2-b]pyridin-2-yl)cyclohexan-1-ol and (1S,2R,3S)-2-amino-3-(5-chloro-3-methyl-7-((thiophen-2-ylmethyl)amino)thieno[3,2-b]pyridin-2-yl)cyclohexan-1-ol [Compound 374]”, the IC50 (in the test on ATXN3 pre-mRNA; in test [1]) was 30 to 300 nM each time.
Take “(1R,5R,6S)-5-amino-6-(3-bromo-5-chloro-7-((thiophen-2-ylmethyl)amino)thieno[3,2-b]pyridin-2-yl)cyclohex-2-en-1-ol and (1S,5S,6R)-5-amino-6-(3-bromo-5-chloro-7-((thiophen-2-ylmethyl)amino)thieno[3,2-b]pyridin-2-yl)cyclohex-2-en-1-ol [Compound 329]”: the IC50 (in the test on ATXN3 pre-mRNA; in test [1]) was 30 to 300 nM each time.
Take “(1R,5S,6R)-6-amino-5-(3-bromo-5-chloro-7-((thiophen-2-ylmethyl)amino)thieno[3,2-b]pyridin-2-yl)cyclohex-2-en-1-ol and (1S,5R,6S)-6-amino-5-(3-bromo-5-chloro-7-((thiophen-2-ylmethyl)amino)thieno[3,2-b]pyridin-2-yl)cyclohex-2-en-1-ol [Compound 153]”: the IC50 (in the test with ATXN3 pre-mRNA; in test [1]) was at most 30 nM throughout.
Consider “(2-((1S,2S)-2-aminocyclohexyl)-5-chloro-7-((thiophen-2-ylmethyl)amino)thieno[3,2-b]pyridin-3-yl)methanol and (2-((1R,2R)-2-aminocyclohexyl)-5-chloro-7-((thiophen-2-ylmethyl)amino)thieno[3,2-b]pyridin-3-yl)methanol [Compound 360]”, for which the IC50 (in the test with ATXN3 pre-mRNA; in test [1]) was 30 to 300 nM in each case.
With “(2R,3S)-2-amino-3-(3-bromo-5-chloro-7-((thiophen-2-ylmethyl)amino)thieno[3,2-b]pyridin-2-yl)cyclohexan-1-one and (2S,3R)-2-amino-3-(3-bromo-5-chloro-7-((thiophen-2-ylmethyl)amino)thieno[3,2-b]pyridin-2-yl)cyclohexan-1-one [Compound 192]”, the half-inhibitory concentration (IC50) (with ATXN3 pre-mRNA; in test [1]) was at most 30 nM throughout.

The IC50 is the point on the concentration scale where inhibition reaches its midpoint.
